PubChem BioAssay (NCI)
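48-hour exposure; five concentrations; linearly interpolated endpoints. The concentration for full growth arrest is given as TGI.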

Tests used:
Test in all cases: inhibition of tumour cell growth, NCI panel, 48 h
[1] = test system: BT-549 breast
[2] = test system: CAKI-1 renal
[3] = test system: CCRF-CEM leukemia
[4] = test system: DU-145 prostate
[5] = test system: EKVX NSCLC
[6] = test system: HCT-116 colon
[7] = test system: IGROV1 ovarian
[8] = test system: MALME-3M melanoma
[9] = test system: NCI-H460 lung
[10] = test system: OVCAR-3 ovarian
[11] = test system: OVCAR-4 ovarian
[12] = test system: SF-295 CNS
[13] = test system: SF-539 CNS
[14] = test system: SK-MEL-28 melanoma
[15] = test system: SK-OV-3 ovarian
[16] = test system: SN12C renal
[17] = test system: SNB-75 CNS
[18] = test system: T-47D breast
[19] = test system: UACC-257 melanoma
[20] = test system: UO-31 renal

Structure (SMILES) | TGI [1] | TGI [2] | TGI [3] | TGI [4] | TGI [5] | TGI [6] | TGI [7] | TGI [8] | TGI [9] | TGI [10] | TGI [11] | TGI [12] | TGI [13] | TGI [14] | TGI [15] | TGI [16] | TGI [17] | TGI [18] | TGI [19] | TGI [20]
O=C(O)CC(NC(=O)/C(=C/c1ccccc1)NC(=O)c1ccccc1)C(=O)O (stereo not given) | > 100 µM | > 100 µM | > 100 µM | > 100 µM | > 100 µM | > 100 µM | > 100 µM | > 100 µM | > 100 µM | > 100 µM | > 100 µM | > 100 µM | > 100 µM | > 100 µM | > 100 µM | > 100 µM | > 100 µM | > 100 µM | > 100 µM | > 100 µM
O=C1CSC(c2ccccc2)N1c1ccc(-n2c(-c3ccccc3)nc3ccccc3c2=O)cc1 (stereo not given) | > 100 µM | > 100 µM | > 100 µM | > 100 µM | > 100 µM | > 100 µM | > 100 µM | > 100 µM | > 100 µM | > 100 µM | > 100 µM | > 100 µM | > 100 µM | > 100 µM | > 100 µM | > 100 µM | > 100 µM | > 100 µM | > 100 µM | > 100 µM
CC(=O)OCC1OC(c2c(OC(C)=O)cc(C)c3c(=O)cc(/C(C(C)=O)=C(\C)O)oc23)C(OC(C)=O)C(OC(C)=O)C1OC(C)=O (stereo not given) | > 100 µM | > 100 µM | > 100 µM | > 100 µM | > 100 µM | > 100 µM | > 100 µM | > 100 µM | > 100 µM | > 100 µM | > 100 µM | > 100 µM | > 100 µM | > 100 µM | > 100 µM | > 100 µM | > 100 µM | > 100 µM | > 100 µM | > 100 µM
CC1C2CC(CC2(C)O)C1(C)C (stereo not given) | > 100 µM | > 100 µM | > 100 µM | > 100 µM | > 100 µM | > 100 µM | > 100 µM | > 100 µM | > 100 µM | > 100 µM | > 100 µM | > 100 µM | > 100 µM | > 100 µM | > 100 µM | > 100 µM | > 100 µM | > 100 µM | > 100 µM | > 100 µM
COc1ccc2c(=O)cc(-c3ccc(OC)c(OC)c3OC)oc2c1 | > 100 µM | > 100 µM | > 31.6 µM | > 100 µM | > 100 µM | > 100 µM | > 100 µM | > 100 µM | > 100 µM | > 87.6 µM | > 100 µM | > 100 µM | > 100 µM | > 100 µM | > 100 µM | > 100 µM | > 92.6 µM | > 100 µM | > 100 µM | > 100 µM
N#CC1=C2SCCN2C(=O)C(C#N)C12CCCCC2 (stereo not given) | > 100 µM | > 100 µM | > 100 µM | > 100 µM | > 100 µM | > 100 µM | > 100 µM | > 100 µM | > 100 µM | > 100 µM | > 100 µM | > 100 µM | > 100 µM | > 100 µM | > 100 µM | > 100 µM | > 100 µM | > 100 µM | > 100 µM | > 100 µM
Cc1cc2nc(C=C(C(F)(F)F)C(F)(F)F)sc2cc1C | 4.64 µM | 8.24 µM | > 100 µM | 10.2 µM | 7.27 µM | 2.93 µM | 7.78 µM | 4.56 µM | 16 µM | 5.63 µM | 14.9 µM | 13.4 µM | 4.31 µM | 14.5 µM | 32.7 µM | 1.63 µM | 10.3 µM | 1.78 µM | 13.6 µM | 7.17 µM
C/C=C/C=C\C=C/C(O)C(C)C(CCC(C)C1OC(=O)C=CC1C)OP(=O)(O)O (stereo not given) | 0.591 µM | 0.314 µM | 0.625 µM | 1.76 µM | 1.54 µM | 0.717 µM | 0.694 µM | 0.641 µM | 1.76 µM | 0.393 µM | 2.86 µM | 1.01 µM | 1.7 µM | 2.12 µM | 1.68 µM | 1.11 µM | 2.85 µM | 1.46 µM | 3.02 µM | 0.93 µM
